Like-named read-outs stand apart in the source and are kept apart here.
Assays:
Format in all cases: cell-based
[1] = test system: HIV-1 mutant Ile108RT in TZM-bl cells; experiment: Anti-HIV assay on TZM-bl cells, Ile108RT mutant; details: read-out: EC50 Ile108RT TZM-bl
From the text: (§1) In order to introduce mutation(s) at the level of the pol gene coding for the RT in the pNL4-3 plasmid containing the complete viral genome (Adachi et al., 1986. J. Virol., Vol. 59 p 284-291) we used the “Quick change mutagenesis kit” (Stratagene). The following mutations were separately introduced in pNL4-3: L100I, K103N, V108I, Y181C, Y188C, and the double mutations K103N/V108I. These mutations were chosen because of the resistance that they confer to existing NNRTI. The production procedure of the mutant viral stocks is identical to the one described above.
(§2) Anti-HIV activity and cytotoxicity of the compounds were tested on the TZM-b1 cell line. The TZM-b1 cell line (Wei et al. 2002. Antimicrob. Agents Chemother. Vol. 46, p 1896-1905) was received from the NIH AIDS Research and Reference Reagent Program. These cells were cultured in complete DMEM medium supplemented with 10% fetal bovine serum (FBS), and 1% Penicillin/Streptomycin. Exponentially growing cells were trypsinized, centrifuged and split twice weekly at 5 10^4 cells/ml.
(§3) The anti-HIV assay with TZM-b1 cells is essentially the same as described above with P4 cells. The main difference between the two cell lines is that the TZM-b1 cells express at their surface both the CD4 and CCR5 proteins, acting as receptor and co-receptor for HIV entry, respectively (Wei et al. 2002. Antimicrob. Agents Chemother. Vol. 46, p 1896-1905). This feature makes the cells very sensitive to infection by the virus. The TMZ-b1 cells were infected with equal amount of cell-free virus, corresponding to 10 ng of HIV p24 antigen. This amount is ten times lower than the amount used to infect the P4 cells.

[2] = test system: HIV-1 mutant Ile108RT in MT4 cells; experiment: Anti-HIV assay on MT4 cells, Ile108RT mutant
From the text: as §1
(§4) Anti-HIV activity of the compounds was tested on MT-4 cell line. The MT-4 cell line (Larder et al. 1989. Sciences, Vol. 243 p 1731) was received from the NIH AIDS Research and Reference Reagent Program. These cells were cultured in RPMI medium supplemented with 10% fetal bovine serum (FBS), and 1% Penicillin/Streptomycin. The cultures were split regularly to keep cells densities between 0.3 to 1.2 10^6 cells/ml.
(§5) The MT-4 cells rapidly die upon infection by HIV. In this system there is an inverse correlation between cells survival and the amount of viral replication.
(§6) Briefly, in the anti-HIV assay exponentially growing MT-4 cells were infected with HIV-1. 100 μl of infected MT-4 cells were seeded in 96-well plate at a concentration of 0.4 10^5 cells/ml, and 100 μl of the different drugs dilutions were added to the cells. After 4 days of incubation at 37° C., 5% CO2, cells survival was measured using MTS (3-(4-5-dimethylthiazol-2-yl)-5-(−(3-carboxymethoxyphenyl)-2-(4-sulfophenyl)-2H-tetrazolium) assays. This compound is reduced by viable cells in a colored soluble formazan salt.
(§7) The absorbance was measured on a Benchmark™ Microplate Reader (Biorad) (λ=490 nm) and compared with 12 cell control replicates (nor virus nor drug added) and 12 virus control wells (no drug added). Each assay was performed a minimum of three times. The 50% effective concentration (EC50) was calculated from each dose response curve using the CurveExpert 1.3 software.

[3] = test system: HIV-1 mutant Cys188RT in P4 cells; experiment: Anti-HIV assay on P4 cells, Cys188RT mutant
From the text: as §1
Anti-HIV activity and cytotoxicity of the compounds were tested on a P4 cell line. The P4 cell line (Clavel & Charneau, 1994. J. Virol., Vol. 68 p 1179-1185) was provided by Dr. François Clavel (Unité de recherche antivirale de l'hôpital Xavier Bichat Paris: Inserm). The P4 cells were cultured in complete DMEM medium supplemented with 10% fetal bovine serum (FBS), 0.5% of Penicillin/Streptomycin and G418 at 0.5 mg/ml. Exponentially growing cells were trypsinized, centrifuged and split twice weekly at 5.10^4 cells/ml.
The P4 cells are HIV-infectible Hela-CD4 cells that carry the bacterial lacZ gene under the control of the HIV-1 long terminal repeat (LTR). In this cell line, transcription of the LacZ gene is driven by the HIV-1 LTR. As such, the cytoplasmic accumulation of β-galactosidase is strictly dependent on the presence of the HIV transactivator Tat produced during the intracellular viral replication (Clavel & Charneau, 1994. J. Virol., Vol. 68, p. 1179-1185). In other words, in this system, the expression level of the β-galactosidase gene is proportional to the viral replication.
Briefly, in the anti-HIV assay 100 Ål of P4 cells were plated in 96-well plate at a concentration of 0.4 10^5 cells/ml and incubated at 37° C., 5% CO2. After 48 h, the medium was removed and 100 Ål of the different drugs dilutions were added to the cells. Four hours after the addition of the drugs all cells were infected with equal amount of cell-free virus, corresponding to 100 ng of HIV p24 antigen. After 48 h of incubation at 37° C., 5% CO2, β-galactosidase activity was measured using chlorophenol red-β-D-galactopyranoside assays.
as §7, with “(λ=570” for “(λ=490”, “(no” for “(nor”, “or” for “nor”, “(Ec50)” for “(EC50)”, “software. As Nevirapine activity corresponds to its published values (10-100 nM), the data are consistent with other measures of viral replication.” for “software.”

[4] = test system: HIV-1 mutant Asn103RT in TZM-bl cells; experiment: Anti-HIV assay on TZM-bl cells, Asn103RT mutant; details: read-out: EC50 Asn103RT TZM-bl
From the text: as §1, §2, §3

[5] = test system: HIV-1 mutant Cys188RT in MT4 cells; experiment: Anti-HIV assay on MT4 cells, Cys188RT mutant
From the text: as §1, §4, §5, §6, §7

[6] = test system: HIV-1 mutant Ile100RT in MT4 cells; experiment: Anti-HIV assay on MT4 cells, Ile100RT mutant
From the text: as §1, §4, §5, §6, §7

[7] = Human immunodeficiency virus 1, TZM-bl
[8] = Human immunodeficiency virus 1, MT4, read-out: EC50 Ile108RT MT4
[9] = Human immunodeficiency virus 1, read-out: EC50 Cys188RT P4
[10] = Human immunodeficiency virus 1, MT4, read-out: EC50 Cys188RT MT4
[11] = Human immunodeficiency virus 1, MT4, read-out: EC50 Ile100RT MT4
[12] = P4, mutant Cys188RT, read-out: EC50 Cys188RT P4
[13] = MT4, mutant Ile108RT, read-out: EC50 Ile108RT MT4
[14] = MT4, mutant Cys188RT, read-out: EC50 Cys188RT MT4

Compound	EC50 [1, 7]	EC50 [2, 8]	EC50 [3, 9]	EC50 [4, 7]	EC50 [5, 10]	EC50 [6, 11]	EC50 ([1]; TZM-bl, mutant Ile108RT)	EC50 [3, 12]	EC50 ([4]; TZM-bl, mutant Asn103RT)	EC50 [2, 13]	EC50 [5, 14]	EC50 Ile100RT MT4 ([6]; MT4, mutant Ile100RT)	EC50 ([6]; MT4, mutant Ile100RT, read-out: EC50 Ile100RT MT4)
O=C1Nc2ccc(Cl)cc2[C@@](C#CC2CC2)(C(F)(F)F)O1 [Efavirenz, reference compound]	< 6 nM	< 1 nM	< 1 nM	35 nM	1 nM	178 nM							
CCc1c(C)[nH]c(=O)c(C)c1OC1CC(C)CC(C)C1 (stereo not drawn) [Z154]							14 nM	< 1 nM	29 nM				
CCc1c(C)[nH]c(=O)c([N+](=O)[O-])c1OC1CC(C)CC(C)C1 (stereo not drawn) [Z91inv, 3-nitro-5-ethyl-6-methyl-4-[(3,5-dimethylcyclohexyl)oxy]pyridine-2(1H)-one]	< 1 nM	72 nM	< 1 nM	355 nM	43 nM	1380 nM							
CCc1c(C)[nH]c(=O)c(CO)c1OC1CC(C)CC(C)C1 (stereo not drawn) [Z45inv]								8 nM					
CCc1c(C)[nH]c(=O)c(N(C)C)c1OC1CC(C)CC(C)C1 (stereo not drawn) [Z150, 3-(dimethylamino)-5-ethyl-6-methyl-4-[(3,5-dimethylcyclohexyl)oxy]pyridine-2(1H)-one]	4 nM	< 1 nM	< 1 nM	11 nM	6 nM	87 nM							
CCc1c(C)[nH]c(=O)c(CSC(C)=O)c1OC1CC(C)CC(C)C1 (stereo not drawn) [Z114]							12 nM	3 nM	584 nM	12000 nM	1680 nM	Inactive	
CCOC(=O)c1c(OC2CC(C)CC(C)C2)c(CC)c(C)[nH]c1=O (single isomer, unassigned) [Z37inv]							1090 nM	10 nM					
CCc1c(C)[nH]c(=O)c(CN=[N+]=[N-])c1OC1CC(C)CC(C)C1 (stereo not drawn) [Z153]							1 nM	< 1 nM	42 nM	8 nM	33 nM		187 nM
Cc1ccnc2c1NC(=O)c1cccnc1N2C1CC1 [Nevirapine, reference compound]	91 nM	1270 nM	1640 nM	2100 nM	> 5000 nM	2060 nM							
